Assay results: paper PMC9101764, “Synthesis and In Vitro Characterization of Selective Cannabinoid CB2 Receptor Agonists: Biological Evaluation against Neuroblastoma Cancer Cells” (Molecules, 2022)
Where two headings read alike, the source gives them in different places.

Experiments:
hCB1R = target: T1, hCB1R (Homo sapiens, UniProt P21554); assay: [3H]CP55,940 radioligand displacement assay, CHO cell membranes; format: binding; settings: for displacement of [3H]CP55,940 at hCB1R: CHO membranes, 0.1 nM-10 μM compounds
T1 construct: expressed in transfected cells; host or cells: CHO cells (membranes)
T1 sequence (P21554 whole entry): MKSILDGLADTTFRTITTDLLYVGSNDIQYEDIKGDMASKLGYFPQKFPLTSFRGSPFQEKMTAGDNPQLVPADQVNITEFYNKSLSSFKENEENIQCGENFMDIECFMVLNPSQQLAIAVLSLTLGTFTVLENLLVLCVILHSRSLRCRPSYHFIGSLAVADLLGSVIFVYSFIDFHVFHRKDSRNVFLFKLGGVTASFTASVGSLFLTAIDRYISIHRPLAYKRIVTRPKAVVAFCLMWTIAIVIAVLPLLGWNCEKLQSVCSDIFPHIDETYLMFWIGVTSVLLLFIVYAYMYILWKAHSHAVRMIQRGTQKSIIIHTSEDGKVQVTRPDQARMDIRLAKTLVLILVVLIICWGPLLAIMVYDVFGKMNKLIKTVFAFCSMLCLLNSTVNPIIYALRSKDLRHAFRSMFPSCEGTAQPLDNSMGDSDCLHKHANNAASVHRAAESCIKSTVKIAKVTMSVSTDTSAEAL
Procedure: (§1) CHO cells stably expressing hCB1R or hCB2R were maintained at 37 °C and 5% CO2 in Gibco Ham’s F-12 nutrient mix (Fisher Scientific, Loughborough, UK ) supplemented with 2 mM L-glutamine, 10% fetal bovine serum (FBS), 0.6% penicillin−streptomycin (Fisher Scientific, Loughborough UK), and the disulfate salt of geneticin (G418) as previously described (Sigma-Aldrich, Poole, UK). For subsequent radioligand displacement assays, membranes were prepared by scraping cells from flasks, centrifuging the cells, and storing the cell pellet at −20 °C. When required for us, cell pellets were defrosted and diluted in tris buffer (50 mM Tris-HCl and 50 mM Tris-base). As we have described in previous studies, HitHunter (cAMP) and PathHunter (βarrestin2) CHO-K1 cells stably expressing hCB1R or hCB2R from DiscoveRx® (Eurofins, Fremont, CA, USA) were maintained at 37 °C, 5% CO2 in F-12 DMEM containing 10% FBS and 1% Pen/Strep with 800 µg/mL geneticin (HitHunter) or 800 µg/mL G418 and 300 µg/mL hygromycin B (PathHunter).
(§2) We have previously described radioligand displacement assays in detail. […] Binding reactions were terminated by ice-cold tris binding buffer and subsequent vacuum filtration (24-well sampling manifold (Brandel cell harvester; Brandel Inc., Gaithersburg, MD, USA)) using Brandel GF/B filters soaked in wash buffer at 4 °C for at least 24 h. Filters were washed with 1.2 mL of tris-binding buffer six times, then oven-dried for 60 min before being incubated in 3 mL of scintillation fluid (Ultima Gold XR, PerkinElmer, Seer Green, Buckinghamshire, UK). Radioactivity was quantified by liquid scintillation spectrometry. All compounds were first prepared at 10 mM solutions in DMSO. The final vehicle concentration for assays was 0.1% DMSO. All assays were performed in duplicate.
(§3) Estimates of Ki, EC50, and Emax were determined using non-linear regression three-parameters (GraphPad, Prism, v. 9.0).

hCB2R [1] = target: T2, hCB2R (Homo sapiens, UniProt P34972); assay: as above; format: binding; settings: for displacement of [3H]CP55,940 at hCB2R: CHO membranes, 0.1 nM-10 μM compounds
T2 construct: host or cells: HitHunter CHO-K1 cells
T2 sequence (P34972 whole entry): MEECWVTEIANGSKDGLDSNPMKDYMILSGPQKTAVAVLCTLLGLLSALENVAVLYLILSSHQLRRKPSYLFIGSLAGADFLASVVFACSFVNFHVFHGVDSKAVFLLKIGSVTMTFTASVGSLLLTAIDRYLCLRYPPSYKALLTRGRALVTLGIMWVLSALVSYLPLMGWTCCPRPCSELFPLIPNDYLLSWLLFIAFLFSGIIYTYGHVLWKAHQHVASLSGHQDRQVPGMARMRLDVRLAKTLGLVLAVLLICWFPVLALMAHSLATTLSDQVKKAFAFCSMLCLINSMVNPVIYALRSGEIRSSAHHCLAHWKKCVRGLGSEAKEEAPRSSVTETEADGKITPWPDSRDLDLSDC
Procedure: as §1, §2, §3

hCB2R [2] = target: T2, hCB2R; assay: HitHunter cAMP assay: inhibition of FSK-stimulated cAMP accumulation in CHO cells; format: cell-based; settings: for modulation of cAMP response: CHO cells expressing hCB2R
Procedure: For the cAMP inhibition assay, cells were treated with 10 μM FSK and synthetized compounds for 90 min to assess compound concentration-dependent activity.
as §1
The quantification of FSK-stimulated cAMP accumulation using the DiscoveRx HitHunter assay (DiscoveRx, Eurofins, Fremont, CA, USA) has been described in detail previously elsewhere. Briefly, 20,000 cells/well were plated in low-volume 96-well plates and incubated overnight in Opti-MEM with 1% FBS at 37 °C and 5% CO2. The next day, the media were replaced with cell assay buffer (DiscoveRx). Immediately after this, the cells were simultaneously treated with 10 µM FSK and ligands for 90 min. Subsequent additions of cAMP antibody solution and cAMP working detection solutions followed the manufacturer’s directions (DiscoveRx) and cells were stored for 60 min at room temperature. cAMP solution A (DiscoveRx) was added according to the manufacturer’s directions followed by another 60 min room temperature incubation prior to chemiluminescence being measured on a Cytation5 plate reader (top read, gain 200, integration time 10,000 ms).
as §3
(§4) Data are fitted to a non−linear regression (three parameter model, GraphPad v. 9.0). Data are mean ± S.E.M. of 6 independent experiments performed in triplicate.

hCB2R [3] = target: T2, hCB2R; assay: PathHunter β-arrestin2 recruitment assay in CHO cells; format: cell-based
Procedure: Compounds FG158a, FG160a, FG161a, and LV62 were also evaluated for their ability to recruit β-arrestin2, since G protein-coupled receptors also interact with β-arrestin, which facilitates receptor internalization, recycling, degradation, and signaling.
as §1
The quantification of β-arrestin2 recruitment using the DiscoveRx PathHunter assay has been described by our group previously and is summarized here.. Twenty thousand cells/well were grown overnight in Opti-MEM containing 1% FBS at 37 °C and 5% CO2 in low-volume 96 well plates. The next day, cells were treated with compounds for 90 min at 37 °C. Detection solution was added to cells according to the manufacturer’s directions (DiscoveRx) and cells were stored for 60 min at room temperature. After this incubation, chemiluminescence was quantified on a Cytation5 plate reader (top read, gain 200, integration time 10,000 ms).
as §3, §4

SH-SY5Y cells [4] = assay: Sulforhodamine B (SRB) cell viability assay; format: cell-based, human; settings: for effect on cell viability: 24 h, 48 h and 72 h, 2.5–40 µM; for IC50: Homo sapiens, 72 h of treatment, SRB, cis/trans mixture
Procedure: We tested the anti-proliferative activity of the novel CB2R agonists FG158a, FG160a, FG161a, and LV62 in neuroblastoma cell lines (Figure 4). The compounds were assayed as a mixture of cis and trans isomers. […] After 72 h of treatment, the effect was higher and could also be observed at lower concentrations. The inhibitory effect was confirmed in another neuroblastoma cell line, SK-N-BE cells.
Human neuroblastoma SHSY5Y and SK-N-BE cell lines were grown in DMEM (GIBCO, Paisley, UK) and MEM (Sigma-Aldrich, St.Louis, MO, USA), respectively, supplemented with 2 mM l-glutamine, […], 50 units/mL penicillin and 10% heat-inactivated fetal bovine serum (FBS) in a humidified atmosphere (5% CO2 at 37 °C). Cells were detached as previously described with 0.25% trypsin (Sigma-Aldrich) at 70–80% confluence.
(§5) Cells seeded for 24 h in triplicate in 96-well plates at a density of 8000 cells/well were left to adhere overnight. CB2R agonists were added to the culture in triplicate at concentrations ranging from 2.5–40 µM. After 24 h, 48 h, and 72 h, cells were fixed, shaking for 2 h at 4 °C with 50% v/v trichloroacetic acid and washed with distilled water. Cells left overnight to dry were stained with 0.4% w/v SRB in 1% v/v acetic acid (at room temperature for 30 min on a shaker) and then washed with 1% acetic acid to allow for the removal of the unbound dye. TRIS-HCl 10 mM, pH 7.4 was added to the cells and absorbance was measured at 495 nm as previously shown using a Glomax® Discover Microplate Reader (Promega, Madison, WI, USA). In combinatory assays, similar procedures were adopted and the CB2R antagonist SR144528 (1 µM) was added 1 h before the CB2 agonists (10, 20 and 40 µM) to SHSY5Y cells that were harvested as described above after 72 h of incubation.
Figure 4 Inhibition of cell viability. The effect on cell viability by CB2R agonists was determined by sulforhodamine B (SRB) assays in SH-SY5Y and SK-N-BE cell lines. SH-SY5Y cells were treated with the compounds indicated in the figure for 24 h (A), 48 h (B), and 72 h (C) at the concentrations reported in the histograms. SK-N-BE cells were treated with the same compounds for 72 h (D). Figures report cell viability (mean of at least 3 independent experiments ± SEM) as percent of cell survival vs. untreated cells (considered as 100% of survival). […] The statistical significance was calculated with two-way ANOVA using Dunnett’s multiple comparisons test.

SH-SY5Y cells [5] = test system: SH-SY5Y cells; set-up: method as in PMID 26842917; settings: presumably via a CB2R-independent mechanism; cited from earlier work
SH-SY5Y cells [6] = assay: SRB cell viability assay with pre-incubation of CB2R antagonist SR144528; format: cell-based, human; settings: SR144528 1 µM added 1 h before, 72 h, agonists at 10, 20 and 40 µM
Procedure: To address a CB2R-mediated mechanism, we tested FG158a, LV62, and FG160a at inhibitory concentrations in SH-SY5Y cells pre-incubated with the CB2R antagonist SR144528. After 72 h of treatment, we observed a reversion in cell viability at 20 and 40 µM of FG158a and FG160a in the presence of SR144528. The inhibitory effect of LV62 was reverted only at 40 µM (Figure 5).
as §5, with “In combinatory assays, similar procedures were adopted and the CB2R antagonist SR144528 (1 µM) was added 1 h before the CB2 agonists (10, 20 and 40 µM) to SHSY5Y cells that were harvested as described above after 72 h of incubation.” left out
Figure 5 CB2R–mediated effect on cell viability. […] Figures (A–C) report cell viability (mean of 3 independent experiments) expressed as absorbance (Abs). The statistical significance was calculated with two-way ANOVA using Tukey’s multiple comparisons test (* p ≤ 0.05).

[7] = CHO cells expressing human CB2R, 10 μM FSK, 90 min
[8] = CHO cells expressing human CB2R, 90 min

SMILES	Ki (hCB1R) [nM]	displacement of [3H]CP55,940 at hCB1R (hCB1R)	Ki (hCB2R [1]) [nM]	displacement of [3H]CP55,940 at hCB2R (hCB2R [1])	EC50 (hCB2R [2]) [nM]	modulation of cAMP response (hCB2R [2]; 10 μM FSK, 90 min)	cAMP Inhibition Emax (% CP55,940) ± S.E.M (hCB2R [2]; [7])	EC50 (hCB2R [3]) [nM]	β-Arrestin2 Recruitment Emax (% CP55,940) ± S.E.M (hCB2R [3]; [8])	effect on cell viability (SH-SY5Y cells [4])	IC50 (SH-SY5Y cells [4]) [nM]	melting point [°C]	Ki (hCB1R; read-out: CB1R Ki) [nM]	EC50 (hCB2R [2]; CHO cells expressing human CB2R, 10 μM FSK, 90 min, read-out: cAMP Inhibition EC50 (95% C.I.)) [nM]	EC50 (hCB2R [3]; CHO cells expressing human CB2R, 90 min, read-out: β-Arrestin2 Recruitment EC50 (95% C.I.)) [nM]	effect on SH-SY5Y cell proliferation (SH-SY5Y cells [5])	β-arrestin2 recruitment (hCB2R [3]; CHO cells expressing hCB2R, 90 min)	reversion in cell viability in the presence of SR144528, agonist concentration (SH-SY5Y cells [6])
CC1CCC(NC(=O)c2cc3cccnc3n(CCCCCCl)c2=O)CC1 (stereo not drawn) [FG160a, 1-(5-chloropentyl)-N-(4-methylcyclohexyl)-2-oxo-1,2-dihydro-1,8-naphthyridine-3-carboxamide]	> 10000	not able to displace [^3H]CP55,940	16.5	fully displaced [^3H]CP55,940	600	able to modulate the cAMP response	90 ± 3.1 % CP55,940	> 10000	41 ± 1.0 % CP55,940	inhibited cell viability	13200	124 to 126						
CC1CCC(NC(=O)c2cc3cccnc3n(CCCCCN=[N+]=[N-])c2=O)CC1 (stereo not drawn) [FG161a, 1-(5-azidopentyl)-N-(4-methylcyclohexyl)-2-oxo-1,2-dihydro-1,8-naphthyridine-3-carboxamide]		not able to displace [^3H]CP55,940	45	fully displaced [^3H]CP55,940		able to modulate the cAMP response	78 ± 11 % CP55,940		47 ± 1.8 % CP55,940	inhibited cell viability	27500	115 to 117	> 10000	760	> 10000			
CCCC(C)(C)c1ccc2c(c1)OC(C)(C)[C@@H]1CC=C(C)C[C@@H]21 [JWH-133]																inhibits SH-SY5Y cell proliferation		
CC1CCC(NC(=O)c2cc3cccnc3n(CCCCCO)c2=O)CC1 (stereo not drawn) [LV62, reference compound]	> 10000	not able to displace [^3H]CP55,940	37		34		110 ± 8.8 % CP55,940	63	65 ± 1.4 % CP55,940	inhibited cell viability	38100						produced an increase in the β-arrestin2 recruitment	only at 40
